Experimental data reported in US9150577B2, “Heterocyclic compounds containing an indole core” (Boehringer Ingelheim International GmbH, priority 2009, dated 2015).

Biological target: Human RSK2 (Homo sapiens (Human), UniProt P51812)
Sequence (P51812 whole entry): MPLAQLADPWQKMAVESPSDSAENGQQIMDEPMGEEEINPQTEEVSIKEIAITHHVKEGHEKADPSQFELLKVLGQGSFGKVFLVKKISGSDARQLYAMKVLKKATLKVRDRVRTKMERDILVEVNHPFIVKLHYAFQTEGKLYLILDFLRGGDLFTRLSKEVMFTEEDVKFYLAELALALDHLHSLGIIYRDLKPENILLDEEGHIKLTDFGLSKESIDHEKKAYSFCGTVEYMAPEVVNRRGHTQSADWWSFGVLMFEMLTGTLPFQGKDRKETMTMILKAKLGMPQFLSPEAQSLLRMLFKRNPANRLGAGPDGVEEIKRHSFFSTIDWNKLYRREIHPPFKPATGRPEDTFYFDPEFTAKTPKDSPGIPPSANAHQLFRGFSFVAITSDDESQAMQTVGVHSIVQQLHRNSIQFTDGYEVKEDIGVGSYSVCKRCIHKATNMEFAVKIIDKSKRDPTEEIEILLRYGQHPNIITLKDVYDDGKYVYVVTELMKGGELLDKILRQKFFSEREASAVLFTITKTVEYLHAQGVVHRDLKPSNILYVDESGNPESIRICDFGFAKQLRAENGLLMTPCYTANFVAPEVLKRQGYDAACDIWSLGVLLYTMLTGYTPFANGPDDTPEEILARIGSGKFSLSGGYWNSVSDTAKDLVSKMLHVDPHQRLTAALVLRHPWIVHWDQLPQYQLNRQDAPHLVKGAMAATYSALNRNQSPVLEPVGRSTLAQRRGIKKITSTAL
Assay: Human RSK2 assay (Kinase Glo Plus, residual ATP);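 further: recombinant human RSK2 phosphorylating a substrate peptide, 90 min at 28 °C, leftover ATP read by luminescence, RLU scaled between no-kinase background and uninhibited kinase controls, 4-parameter fit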
Type: biochemical
Details: not given
`CN1CCC(n2c(NC(=O)c3ccc4cc5n(c4c3)CCCNC5=O)nc3ccccc32)CC1` [Example 77, N-[1-(1-methylpiperidin-4-yl)-1H-benzimidazol-2-yl]-1-oxo-2,3,4,5-tetrahydro-1H-[1,4]diazepino[1,2-a]indole-8-carboxamide] gave an IC50 of 14 nM. In the case of `CC(C)n1c(NC(=O)c2ccc3cc4n(c3c2)C(C)CCNC4=O)nc2ccccc21` (centres unmarked) [Example 165, 5-methyl-1-oxo-N-[1-(propan-2-yl)-1H-benzimidazol-2-yl]-2,3,4,5-tetrahydro-1H-[1,4]diazepino[1,2-a]indole-8-carboxamide], the IC50 is reported as 1.8 nM. For `C[C@H]1CNC(=O)c2cc3ccc(C(=O)Nc4nc5ccccc5n4CCCN(C)C)cc3n21` [Example 131, (4S)-N-{1-[3-(dimethylamino)propyl]-1H-benzimidazol-2-yl}-4-methyl-1-oxo-1,2,3,4-tetrahydropyrazino[1,2-a]indole-7-carboxamide], the IC50 was 15 nM. Work on `COc1cccc(NC(=O)c2ccc3cc4n(c3c2)CCCNC4=O)c1` [Example 148, N-(3-methoxyphenyl)-1-oxo-2,3,4,5-tetrahydro-1H-[1,4]diazepino[1,2-a]indole-8-carboxamide] yielded an IC50 of 190 nM. With `Cc1cc(NC(=O)c2ccc3cc4n(c3c2)CCCNC4=O)n[nH]1` [Example 219, N-(5-methyl-1H-pyrazol-3-yl)-1-oxo-2,3,4,5-tetrahydro-1H-[1,4]diazepino[1,2-a]indole-8-carboxamide] the IC50 was 68 nM. `Cc1cc(NC(=O)c2ccc3cc4n(c3c2)C(C)CNC4=O)no1` (centres unmarked) [Example 174, 4-methyl-N-(5-methyl-1,2-oxazol-3-yl)-1-oxo-1,2,3,4-tetrahydropyrazino[1,2-a]indole-7-carboxamide] gave an IC50 of 34 nM. `Cc1cc(NC(=O)c2ccc3cc4n(c3c2)C(C)CCNC4=O)no1` (centres unmarked) [Example 159, 5-methyl-N-(5-methyl-1,2-oxazol-3-yl)-1-oxo-2,3,4,5-tetrahydro-1H-[1,4]diazepino[1,2-a]indole-8-carboxamide] showed an IC50 of 12 nM. `Cc1cc(NC(=O)c2ccc3cc4n(c3c2)CC2(CCC2)CNC4=O)no1` [Example 170, N-(5-methyl-1,2-oxazol-3-yl)-1′-oxo-2′,3′-dihydro-1′H-spiro[cyclobutane-1,4′-[1,4]diazepino[1,2-a]indole]-8′-carboxamide] gave an IC50 of 1300 nM. In the case of `Cc1cc(NC(=O)c2ccc3cc4n(c3c2)[C@H](C)[C@H](C)NC4=O)no1` [Example 171, (3S,4R)-3,4-dimethyl-N-(5-methyl-1,2-oxazol-3-yl)-1-oxo-1,2,3,4-tetrahydropyrazino[1,2-a]indole-7-carboxamide], the IC50 is reported as 4 nM. For `O=C(Nc1nc2ccccc2[nH]1)c1ccc2cc3n(c2c1)CCCNC3=O` [Example 55, N-(1H-benzimidazol-2-yl)-1-oxo-2,3,4,5-tetrahydro-1H-[1,4]diazepino[1,2-a]indole-8-carboxamide], the IC50 was 4.4 nM. Work on `CC1CNC(=O)c2cc3ccc(C(=O)Nc4cn[nH]c4)cc3n2C1` (centres unmarked) [Example 17, 4-methyl-1-oxo-N-(1H-pyrazol-4-yl)-2,3,4,5-tetrahydro-1H-[1,4]diazepino[1,2-a]indole-8-carboxamide] yielded an IC50 of 145 nM. Work on `O=C(Nc1nc2ccccc2n1CC(F)(F)F)c1ccc2cc3n(c2c1)CCCNC3=O` [Example 87, 1-oxo-N-[1-(2,2,2-trifluoroethyl)-1H-benzimidazol-2-yl]-2,3,4,5-tetrahydro-1H-[1,4]diazepino[1,2-a]indole-8-carboxamide] yielded an IC50 of 4.8 nM. For `CC(C)n1c(NC(=O)c2ccc3cc4n(c3c2)[C@H](C)CNC4=O)nc2ccccc21` [Example 68, (4R)-4-methyl-1-oxo-N-[1-(propan-2-yl)-1H-benzimidazol-2-yl]-1,2,3,4-tetrahydropyrazino[1,2-a]indole-7-carboxamide], the IC50 was 1.9 nM. `NC(=O)c1ccccc1NC(=O)c1ccc2cc3n(c2c1)CCCNC3=O` [Example 215, N-(2-carbamoylphenyl)-1-oxo-2,3,4,5-tetrahydro-1H-[1,4]diazepino[1,2-a]indole-8-carboxamide] gave an IC50 of 21 nM. `O=C(Nc1cc(-c2ccc(F)cc2)on1)c1ccc2cc3n(c2c1)CCCNC3=O` [Example 184, N-[5-(4-fluorophenyl)-1,2-oxazol-3-yl]-1-oxo-2,3,4,5-tetrahydro-1H-[1,4]diazepino[1,2-a]indole-8-carboxamide] gave an IC50 of 155 nM. `O=C(Nc1nnc(Cc2ccccc2)s1)c1ccc2cc3n(c2c1)CCCNC3=O` [Example 117, N-(5-benzyl-1,3,4-thiadiazol-2-yl)-1-oxo-2,3,4,5-tetrahydro-1H-[1,4]diazepino[1,2-a]indole-8-carboxamide] showed an IC50 of 98 nM. With `CC1CNC(=O)c2cc3ccc(C(=O)Nc4cnn(Cc5ccccc5)c4)cc3n2C1` (centres unmarked) [Example 135, N-(1-benzyl-1H-pyrazol-4-yl)-4-methyl-1-oxo-2,3,4,5-tetrahydro-1H-[1,4]diazepino[1,2-a]indole-8-carboxamide] the IC50 was 7.6 nM. Molecule `CC1(C)CNC(=O)c2cc3ccc(C(=O)Nc4cnn(Cc5ccccc5)c4)cc3n21` [Example 134, N-(1-benzyl-1H-pyrazol-4-yl)-4,4-dimethyl-1-oxo-1,2,3,4-tetrahydropyrazino[1,2-a]indole-7-carboxamide] has an IC50 of 1.8 nM. Molecule `CC(C)n1c(NC(=O)c2ccc3cc4n(c3c2)C(C)(C)CNC4=O)nc2ccccc21` [Example 73, 4,4-dimethyl-1-oxo-N-[1-(propan-2-yl)-1H-benzimidazol-2-yl]-1,2,3,4-tetrahydropyrazino[1,2-a]indole-7-carboxamide] has an IC50 of 2 nM. Work on `C[C@H]1NC(=O)c2cc3ccc(C(=O)Nc4nc5ccccc5n4CCCN(C)C)cc3n2[C@H]1C` (relative stereo) [Example 90, N-{1-[3-(dimethylamino)propyl]-1H-benzimidazol-2-yl}-cis-3,4-dimethyl-1-oxo-1,2,3,4-tetrahydropyrazino[1,2-a]indole-7-carboxamide] yielded an IC50 of 2.1 nM. In the case of `C[C@H]1NC(=O)c2cc3ccc(C(=O)Nc4cnn(Cc5ccccc5)c4)cc3n2[C@H]1C` (relative stereo) [Example 29, N-(1-benzyl-1H-pyrazol-4-yl)-cis-3,4-dimethyl-1-oxo-1,2,3,4-tetrahydropyrazino[1,2-a]indole-7-carboxamide], the IC50 is reported as 1.9 nM. `CC1CNC(=O)c2cc3ccc(C(=O)Nc4nc5ccccc5n4C)cc3n2C1` (centres unmarked) [Example 62, 4-methyl-N-(1-methyl-1H-benzimidazol-2-yl)-1-oxo-2,3,4,5-tetrahydro-1H-[1,4]diazepino[1,2-a]indole-8-carboxamide] showed an IC50 of 8.2 nM. With `Cc1cc(NC(=O)c2ccc3cc4n(c3c2)CC(C)(C)CNC4=O)no1` [Example 157, 4,4-dimethyl-N-(5-methyl-1,2-oxazol-3-yl)-1-oxo-2,3,4,5-tetrahydro-1H-[1,4]diazepino[1,2-a]indole-8-carboxamide] the IC50 was 1800 nM. In the case of `CN(C)CCNC(=O)c1ccccc1NC(=O)c1ccc2cc3n(c2c1)CCCNC3=O` [Example 230, N-(2-{[2-(dimethylamino)ethyl]carbamoyl}phenyl)-1-oxo-2,3,4,5-tetrahydro-1H-[1,4]diazepino[1,2-a]indole-8-carboxamide], the IC50 is reported as 125 nM. With `C[C@H]1CCNC(=O)c2cc3ccc(C(=O)Nc4cnn(Cc5ccccc5)c4)cc3n21` [Example 144, (5S)-N-(1-benzyl-1H-pyrazol-4-yl)-5-methyl-1-oxo-2,3,4,5-tetrahydro-1H-[1,4]diazepino[1,2-a]indole-8-carboxamide] the IC50 was 80 nM. Work on `CC(C)n1c(NC(=O)c2ccc3cc4n(c3c2)[C@@H](C)[C@@H](C)CNC4=O)nc2ccccc21` (relative stereo) [Example 70, cis-4,5-dimethyl-1-oxo-N-[1-(propan-2-yl)-1H-benzimidazol-2-yl]-2,3,4,5-tetrahydro-1H-[1,4]diazepino[1,2-a]indole-8-carboxamide] yielded an IC50 of 1.8 nM.

Test system: NHE1
Assay: not given
Details: basal; cited from earlier work
In the case of `Cc1ccc(-c2c(C(=O)CF)n(CCCO)c3ncnc(N)c23)cc1` [fmk], the “basal NHE1 activity” value is listed as “without affecting basal activity”.

Same assay, conditions: cited from earlier work
In the case of `Cc1ccc(-c2c(C(=O)CF)n(CCCO)c3ncnc(N)c23)cc1` [fmk], the “phosphorylation of NHE1” value is listed as “inhibit”.

Same assay, conditions: phenylephrine-induced; cited from earlier work
For `Cc1ccc(-c2c(C(=O)CF)n(CCCO)c3ncnc(N)c23)cc1` [fmk], the “phenylephrine-induced enhanced NHE1 activity” value is given as “inhibit”.
